# pKi: −log10 of the molar value. Like-named read-outs stand apart in the source and are kept apart here.
# Legend:
# MV4:11 cells = experiment: Cellular viability / anti-proliferative activity, CellTiter-Glo, 7 day protocol; type: cell-based, human; conditions: 168 h
# Experimental: Anti proliferative activity using MLL-harboring cell lines. MV4:11 cells are grown in RPMI-1640 media supplemented with 10% FBS and 1% penicillin/streptomycin. Viability assays are performed by dispensing […] into each well of an opaque 384-well plate and adding compounds at the indicated concentrations in a final volume of 32 μL and a final concentration of DMSO of 0.1% for all samples. After a set incubation period, 7 day protocol, the viability of cells in each well is assessed using the CellTiter-Glo assay (Promega), read on a GloMax 96 Microplane Luminometer (Promega). Serial dilutions of each cell type are included in all assays to generate standard curves and determine assay measurements are taken within the dynamic range of the instrument. GI50 values are calculated based on three biological replicates, each with three technical replicates. Data are expressed as mean plus/minus S.E.M.
# WDR5 = WDR5 (Homo sapiens (Human), UniProt P61964); experiment: TR-FRET binding assay, displacement of 10mer-Thr-FAM probe from His-tagged WDR5
# Experimental: The LanthaScreenTM Elite Tb-anti-HIS Antibody from ThermoFisher Scientific was used for this purpose. […] The ratio of the 520 and 495 signals are then utilized to generate a dose-response curve to calculate an IC50 value. […] WDR[…] tag protein is used at 2 nM.
# [1] = cellular proliferation of MV4:11 human cancer cell lines, 7 day
# [2] = Inhibition of WDR5 by TR-FRET assay
# [3] = Homo sapiens, MV4:11 leukemia cells after a 7 day incubation period
GI50 (MV4:11 cells; [3]),pKi (WDR5),Compound,GI50 (MV4:11 cells; [1]),pKi (WDR5; [2])
–,–,"COc1ccnc(CNC(=O)c2cc(CNC3=NCCC3)cc(-c3ccc(F)nc3C)c2)c1 [Example 53, 3-(((3,4-Dihydro-2H-pyrrol-5-yl)amino)methyl)-5-(6-fluoro-2-methylpyridin-3-yl)-N-((4-methoxypyridin-2-yl)methyl)benzamide]",630 nM,9.28
–,–,"Cc1cc(C(C)NC(=O)c2cc(CNC3=NCCC3)cc(-c3ccc(F)nc3C)c2)ncc1Cl (stereo not drawn) [Example 54, N-(1-(5-Chloro-4-methylpyridin-2-yl)ethyl)-3-(((3,4-dihydro-2H-pyrrol-5-yl)amino)methyl)-5-(6-fluoro-2-methylpyridin-3-yl)benzamide]",180 nM,9.51
–,–,"COc1cc(OC)cc(C(C)NC(=O)c2cc(CNC3=NCCC3)cc(-c3ccc(F)nc3C)c2)c1 (stereo not drawn) [Example 55, 3-(((3,4-Dihydro-2H-pyrrol-5-yl)amino)methyl)-N-(1-(3,5-dimethoxyphenyl)ethyl)-5-(6-fluoro-2-methylpyridin-3-yl)benzamide]",440 nM,7.96
–,–,"COc1cc(CN(C)C(=O)c2cc(CNC3=NCCC3)cc(-c3ccc(F)nc3C)c2)cc(OC)c1 [Example 56, 3-(((3,4-Dihydro-2H-pyrrol-5-yl)amino)methyl)-N-(3,5-dimethoxybenzyl)-5-(6-fluoro-2-methylpyridin-3-yl)-N-methylbenzamide]",6400 nM,7.70
–,–,"COc1cc(CNC(=O)c2cc(CNC3=NCCC3)cc(-c3ccnc(C)c3)c2)cc(OC)c1 [Example 57, 3-(((3,4-Dihydro-2H-pyrrol-5-yl)amino)methyl)-N-(3,5-dimethoxybenzyl)-5-(2-methylpyridin-4-yl)benzamide]",2800 nM,8.52
–,–,"COc1cc(CNC(=O)c2cc(CNC3=NCCC3)cc(-c3ccc(F)cc3C)c2)cc(OC)c1 [Example 59, 5-(((3,4-Dihydro-2H-pyrrol-5-yl)amino)methyl)-N-(3,5-dimethoxybenzyl)-4′-fluoro-2′-methyl-[1,1′-biphenyl]-3-carboxamide]",790 nM,9.13
–,–,"COc1cc(CNC(=O)c2cc(CNC3=NCCC3)cc(-c3ccc(F)nc3C)c2)cc(OC)c1 [Example 60, 3-(((3,4-Dihydro-2H-pyrrol-5-yl)amino)methyl)-N-(3,5-dimethoxybenzyl)-5-(6-fluoro-2-methylpyridin-3-yl)benzamide]",360 nM,9.26
–,–,"Cc1cc(CNC(=O)c2cc(CNC3=NCCC3)cc(-c3cccc(CO)c3)c2)ccc1Cl [Example 63, N-(4-Chloro-3-methylbenzyl)-5-(((3,4-dihydro-2H-pyrrol-5-yl)amino)methyl)-3′-(hydroxymethyl)-[1,1′-biphenyl]-3-carboxamide]",1900 nM,9.06
–,–,"Cc1cc(CNC(=O)c2cc(CNC3=NCCC3)cc(-c3cccnc3C(F)(F)F)c2)ccc1Cl [Example 67, N-(4-Chloro-3-methylbenzyl)-3-(((3,4-dihydro-2H-pyrrol-5-yl)amino)methyl)-5-(2-(trifluoromethyl)pyridin-3-yl)benzamide]",50 nM,> 10.00
–,–,"Cc1cc(CNC(=O)c2cc(CNC3=NCCC3)cc(-c3ccc(F)cc3C(F)(F)F)c2)ccc1Cl [Example 68, N-(4-chloro-3-methylbenzyl)-5-(((3,4-dihydro-2H-pyrrol-5-yl)amino)methyl)-4′-fluoro-2′-(trifluoromethyl)-[1,1′-biphenyl]-3-carboxamide]",160 nM,9.52
–,–,"COc1cc(F)ccc1-c1cc(CNC2=NCCC2)cc(C(=O)NCc2ccc(Cl)c(C)c2)c1 [Example 70, N-(4-chloro-3-methylbenzyl)-5-(((3,4-dihydro-2H-pyrrol-5-yl)amino)methyl)-4′-fluoro-2′-methoxy-[1,1′-biphenyl]-3-carboxamide]",460 nM,9.30
–,–,"Cc1cc(CNC(=O)c2cc(CNC3=NC(=O)CN3C)cc(-c3ccc(F)nc3C)c2)ccc1Cl [Example 71, N-(4-Chloro-3-methylbenzyl)-3-(6-fluoro-2-methylpyridin-3-yl)-5-(((1-methyl-4-oxo-4,5-dihydro-1H-imidazol-2-yl)amino)methyl)benzamide]",5000 nM,8.18
–,–,"Cc1cc(CNC(=O)c2cc(CNC3=NCCN3)cc(-c3ccc(F)nc3C)n2)ccc1Cl [Example 74, N-(4-Chloro-3-methylbenzyl)-4-(((4,5-dihydro-1H-imidazol-2-yl)amino)methyl)-6′-fluoro-2′-methyl-[2,3′-bipyridine]-6-carboxamide]",680 nM,9.34
–,–,"Cc1ccnc(C(NC(=O)c2cc(CNC3=NCCC3)cc(-c3ccc(F)cc3C(F)(F)F)n2)C2CC2)c1 (stereo not drawn) [Example 90, N-(Cyclopropyl(4-methylpyridin-2-yl)methyl)-4-(((3,4-dihydro-2H-pyrrol-5-yl)amino)methyl)-6-(4-fluoro-2-(trifluoromethyl)phenyl)picolinamide]",750 nM,8.92
–,–,"COc1cc(CNC(=O)c2cc(CNC3=NCCC3)nc(-c3ccc(F)cc3C(F)(F)F)c2)cc(OC)c1 [Example 91, 2-(((3,4-dihydro-2H-pyrrol-5-yl)amino)methyl)-N-(3,5-dimethoxybenzyl)-6-(4-fluoro-2-(trifluoromethyl)phenyl)isonicotinamide]",460 nM,8.80
–,–,"CCn1cc(-c2cc(CNC(=N)C3CC3)cc(C(=O)N[C@H](c3ccc(F)c(C)c3)C3CC3)c2)c(C(F)(F)F)n1 [Example 105, (S)-3-(Cyclopropanecarboximidamidomethyl)-N-(cyclopropyl(4-fluoro-3-methylphenyl)methyl)-5-(1-ethyl-3-(trifluoromethyl)-1H-pyrazol-4-yl)benzamide]",10 nM,> 10.00
–,–,"CCn1cc(-c2cc(CNC(=N)C3CCC3)cc(C(=O)N[C@H](c3ccc(F)c(C)c3)C3CC3)c2)c(C(F)(F)F)n1 [Example 106, (S)-3-(Cyclobutanecarboximidamidomethyl)-N-(cyclopropyl(4-fluoro-3-methylphenyl)methyl)-5-(1-ethyl-3-(trifluoromethyl)-1H-pyrazol-4-yl)benzamide]",30 nM,> 10.00
–,–,"COc1cc(OC)cc(C(C)NC(=O)c2cc(Cn3ccnc3C)cc(-c3ccc(F)nc3C)n2)c1 (stereo not drawn) [Example 159, N-(1-(3,5-Dimethoxyphenyl)ethyl)-6′-fluoro-2′-methyl-4-((2-methyl-1H-imidazol-1-yl)methyl)-[2,3′-bipyridine]-6-carboxamide]",1200 nM,8.41
–,–,"COc1cc(CNC(=O)c2cc(CNC3=NCCC3)cc(-c3ccc(F)cc3C)c2N)cc(OC)c1 [Example 168, 2-Amino-5-(((3,4-dihydro-2H-pyrrol-5-yl)amino)methyl)-N-(3,5-dimethoxybenzyl)-4′-fluoro-2′-methyl-[1,1′-biphenyl]-3-carboxamide]",4800 nM,8.28
–,–,"COc1cc(CNC(=O)c2cc(CNC3=NCCN3)cc(-c3ccc(F)cc3C)c2N)cc(OC)c1 [Example 169, 2-Amino-5-(((4,5-dihydro-1H-imidazol-2-yl)amino)methyl)-N-(3,5-dimethoxybenzyl)-4′-fluoro-2′-methyl-[1,1′-biphenyl]-3-carboxamide]",14000 nM,8.21
–,–,"CNc1c(C(=O)N(C)Cc2cc(OC)cc(OC)c2)cc(CNC2=NCCC2)cc1-c1ccc(F)cc1C [Example 170, 5-(((3,4-dihydro-2H-pyrrol-5-yl)amino)methyl)-N-(3,5-dimethoxybenzyl)-4′-fluoro-N,2′-dimethyl-2-(methylamino)-[1,1′-biphenyl]-3-carboxamide]",4700 nM,7.72
–,–,"CNc1c(C(=O)N(C)Cc2cc(OC)cc(OC)c2)cc(CNC2=NCCN2)cc1-c1ccc(F)cc1C [Example 171, 5-(((4,5-Dihydro-1H-imidazol-2-yl)amino)methyl)-N-(3,5-dimethoxybenzyl)-4′-fluoro-N,2′-dimethyl-2-(methylamino)-[1,1′-biphenyl]-3-carboxamide]",3800 nM,7.72
–,–,"COc1cc(CNC(=O)c2cc(CNC3=NCCC3)cc(-c3ccc(F)cc3C)c2NC(C)=O)cc(OC)c1 [Example 172, 2-Acetamido-5-(((3,4-dihydro-2H-pyrrol-5-yl)amino)methyl)-N-(3,5-dimethoxybenzyl)-4′-fluoro-2′-methyl-[1,1′-biphenyl]-3-carboxamide]",240 nM,8.68
–,–,"COc1cc(CNC(=O)c2cc(CNC3=NCCN3)cc(-c3ccc(F)cc3C)c2NC(C)=O)cc(OC)c1 [Example 173, 2-Acetamido-5-(((4,5-dihydro-1H-imidazol-2-yl)amino)methyl)-N-(3,5-dimethoxybenzyl)-4′-fluoro-2′-methyl-[1,1′-biphenyl]-3-carboxamide]",530 nM,8.14
536 nM,9.94,Cc1cc(CNC(=O)c2cc(CNC3=NCCN3)cc(-c3cnccc3C)c2)ccc1Cl [Example B88],–,–
701 nM,9.64,COc1ccnc(CNC(=O)c2cc(CNC3=NCCN3)cc(-c3ccc(F)cc3C)c2)c1 [Example B114],–,–
109 nM,10.05,Cc1cc(CNC(=O)c2cc(CNC3=NCCC3)cc(-c3ccc(F)nc3C)c2)ccc1Cl [Example B129],–,–

# Source: patent US10807959B2, “WDR5-MLL1 inhibitors and modulators” (Vanderbilt University, priority 2018, dated 2020)
